Measured values taken from patent US11485742B2, “2-azaspiro[3.4]octane derivatives as M4 agonists” (NOVARTIS AG, priority 2019, dated 2022).

Assays:
[1] = target: T1, human cloned CHRM3 receptor (Homo sapiens, UniProt P20309); experiment: CHRM3 Ca++ Flux Assay (M3_CHO cells, agonist mode); type: cell-based; settings: for Emax: Percent Activity (PA) measured to EC100 of Carbachol, read-out: M3 FDSS PA %; for EC50: agonist mode, geometric mean if tested more than once, read-out: M3 FDSS EC50
T1 construct: expressed in transfected cells; host or cells: CHO-K1 (M3_CHO)
T1 sequence (P20309 whole entry): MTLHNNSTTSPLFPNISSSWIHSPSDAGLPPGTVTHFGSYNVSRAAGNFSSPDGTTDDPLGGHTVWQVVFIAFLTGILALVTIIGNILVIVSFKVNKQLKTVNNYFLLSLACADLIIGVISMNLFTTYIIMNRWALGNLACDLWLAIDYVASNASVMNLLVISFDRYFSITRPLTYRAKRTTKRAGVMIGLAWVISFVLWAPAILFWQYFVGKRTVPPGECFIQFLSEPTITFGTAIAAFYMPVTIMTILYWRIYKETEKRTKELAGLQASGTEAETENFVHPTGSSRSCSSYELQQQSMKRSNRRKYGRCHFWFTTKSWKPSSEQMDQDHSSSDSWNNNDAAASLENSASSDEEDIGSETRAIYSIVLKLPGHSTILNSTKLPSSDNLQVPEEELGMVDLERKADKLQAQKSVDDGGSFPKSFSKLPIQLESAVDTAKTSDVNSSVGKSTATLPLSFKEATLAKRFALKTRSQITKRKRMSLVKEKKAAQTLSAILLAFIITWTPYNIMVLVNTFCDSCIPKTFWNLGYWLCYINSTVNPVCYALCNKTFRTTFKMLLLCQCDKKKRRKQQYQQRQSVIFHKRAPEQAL
Method in brief: (§1)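 CHO-K1 cells stably expressing human M3 or M5 receptor, dye-loaded ≥1 h, treated with 11-point compound doses in triplicate; Ca++ flux read over 3 min (FDSS). Agonist-mode four-parameter fit; percent activity relative to carbachol EC100; repeat tests reported as geometric mean.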

[2] = target: T2, human cloned CHRM5 receptor (Homo sapiens, UniProt P08912); experiment: CHRM5 Ca++ Flux Assay (M5_CHO cells, agonist mode); type: cell-based; settings: for Emax: Percent Activity (PA) measured to EC100 of Carbachol, read-out: M5 FDSS PA %; for EC50: agonist mode, geometric mean if tested more than once, read-out: M5 FDSS EC50
T2 construct: expressed in transfected cells; host or cells: CHO (M5_CHO)
T2 sequence (P08912 1-532): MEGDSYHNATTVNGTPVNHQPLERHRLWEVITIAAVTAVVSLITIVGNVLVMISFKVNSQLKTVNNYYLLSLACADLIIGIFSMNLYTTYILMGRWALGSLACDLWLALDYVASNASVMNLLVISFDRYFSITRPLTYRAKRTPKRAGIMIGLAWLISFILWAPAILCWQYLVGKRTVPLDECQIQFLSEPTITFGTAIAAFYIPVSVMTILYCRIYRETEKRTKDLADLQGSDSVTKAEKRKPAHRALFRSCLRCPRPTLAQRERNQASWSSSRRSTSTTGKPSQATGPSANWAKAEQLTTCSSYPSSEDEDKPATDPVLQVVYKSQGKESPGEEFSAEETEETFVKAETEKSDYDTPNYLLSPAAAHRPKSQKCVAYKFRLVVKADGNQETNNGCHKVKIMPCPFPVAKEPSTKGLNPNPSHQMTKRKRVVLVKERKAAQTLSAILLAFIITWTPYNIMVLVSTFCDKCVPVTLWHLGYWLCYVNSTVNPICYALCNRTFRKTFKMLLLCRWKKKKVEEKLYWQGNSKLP
Method in brief: as §1

Compound | Emax [1] [%] | EC50 [1] [µM] | Emax [2] [%] | EC50 [2] [µM]
CC(C)(O)CCOc1cc(F)ccc1C1CCN([C@@H]2COC3(C2)CN(c2nnco2)C3)CC1 [Example 1T, (S)-4-(2-(1-(2-(1,3,4-oxadiazol-2-yl)-5-oxa-2-azaspiro[3.4]octan-7-yl)piperidin-4-yl)-5-fluorophenoxy)-2-methylbutan-2-ol] | 0 | > 25 | 0 | > 25
c1ccc(C2CCN([C@@H]3COC4(C3)CN(c3nnco3)C4)CC2)c(O[C@@H]2CCOC2)c1 [Example 1O, (S)-2-(1,3,4-oxadiazol-2-yl)-7-(4-(2-(((R)-tetrahydrofuran-3-yl)oxy)phenyl)piperidin-1-yl)-5-oxa-2-azaspiro[3.4]octane] | 0 | > 25 | 0 | > 25
COC(C)(C)CCOc1ccc(F)cc1C1CCN([C@@H]2COC3(C2)CN(c2nnco2)C3)CC1 [Example 1K, (S)-7-(4-(5-fluoro-2-(3-methoxy-3-methylbutoxy)phenyl)piperidin-1-yl)-2-(1,3,4-oxadiazol-2-yl)-5-oxa-2-azaspiro[3.4]octane] | 0 | > 25 | 0 | > 25
COc1ccc(F)cc1C1CCN([C@@H]2COC3(C2)CN(c2nnco2)C3)CC1 [Example 1V, (S)-7-(4-(5-fluoro-2-methoxyphenyl)piperidin-1-yl)-2-(1,3,4-oxadiazol-2-yl)-5-oxa-2-azaspiro[3.4]octane] | 0 | > 25 | 0 | > 25
Fc1cc(O[C@@H]2CCOC2)c(C2CCN([C@@H]3COC4(C3)CN(c3nnco3)C4)CC2)cc1F [Example 1R, (S)-7-(4-(4,5-difluoro-2-(((R)-tetrahydrofuran-3-yl)oxy)phenyl)piperidin-1-yl)-2-(1,3,4-oxadiazol-2-yl)-5-oxa-2-azaspiro[3.4]octane] | 0 | > 25 | 0 | > 25
Fc1ccc(OC[C@H]2CCOC2)c(C2CCN([C@@H]3COC4(C3)CN(c3nnco3)C4)CC2)c1 [Example 1I, (S)-7-(4-(5-fluoro-2-(((S)-tetrahydrofuran-3-yl)methoxy)phenyl)piperidin-1-yl)-2-(1,3,4-oxadiazol-2-yl)-5-oxa-2-azaspiro[3.4]octane] | 0 | > 25 | 0 | > 25

More lines, now with the values ahead:

Emax [1] [%] | EC50 [1] [µM] | Emax [2] [%] | EC50 [2] [µM] | Compound
0 | > 25 | 0 | > 25 | CC(C)(O)CCOc1cc(F)ccc1C1CCN([C@@H]2COC3(C2)CN(c2nncs2)C3)CC1 [Example 5V, (S)-4-(2-(1-(2-(1,3,4-thiadiazol-2-yl)-5-oxa-2-azaspiro[3.4]octan-7-yl)piperidin-4-yl)-5-fluorophenoxy)-2-methylbutan-2-ol]
0 | > 25 | 30 | 3.65 | Cc1nnc(COc2ccc(F)cc2C2CCN([C@@H]3COC4(C3)CN(c3nnco3)C4)CC2)o1 [Example 2F, (S)-7-(4-(5-fluoro-2-((5-methyl-1,3,4-oxadiazol-2-yl)methoxy)phenyl)piperidin-1-yl)-2-(1,3,4-oxadiazol-2-yl)-5-oxa-2-azaspiro[3.4]octane]
0 | > 25 | 0 | > 25 | Cc1cc(COc2ccc(F)cc2C2CCN([C@@H]3COC4(C3)CN(c3nnco3)C4)CC2)on1 [Example 2G, (S)-7-(4-(5-fluoro-2-((3-methylisoxazol-5-yl)methoxy)phenyl)piperidin-1-yl)-2-(1,3,4-oxadiazol-2-yl)-5-oxa-2-azaspiro[3.4]octane]
